Results as given in patent US20260138976A1 (Hoffmann-La Roche Inc., priority 2022, published 2026).
Like-named read-outs stand apart in the source and are kept apart here.

System: primary human T-cells
Test: IL2 secretion measurements (24 h, CD3-stimulated T-cells, PBS counter screen)
Type: cell-based
Conditions: for Emax IL2 (% activation): CD3 condition, normalised to DMSO (neutral) and 20 μM reference compound A1 = 100%; for EC50: CD3-stimulated primary human T-cells, IL2 secretion, fitted sigmoidal curve, read-out: Tcell IL2 CD3 EC50
Procedure, shortened: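 Expanded primary human T-cells (100k/well) were plated on anti-CD3-coated or PBS-only plates with compound in a 5–6 point dose response (top 20 or 10 μM final, 3.333-fold, 0.2% DMSO). IL-2 in 24 h supernatants was quantified by ProQuantum immunoassay or ELISA. Values were normalized to DMSO and 20 μM reference compound A1 (100%), giving EC50 and Emax.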

Compound | Emax IL2 (% activation) | EC50 (Homo sapiens, T-cell) | EC50
CC(C)(C#N)c1nnc(-c2ccc3c(c2)N(Cc2ccc(-c4ccc(C(F)(F)F)cc4)nc2)C(=O)[C@@H](N)CS3(=O)=O)o1 [Example 106] | 121 % activation | 3840 nM | 
CC(C)(C#N)c1nnc(-c2ccc3c(c2)N(Cc2ccc(-c4noc(C(F)(F)F)n4)cc2)C(=O)[C@@H](N)CS3(=O)=O)o1 [Example 38, 2-[5-[(3R)-3-amino-1,1,4-trioxo-5-[[4-[5-(trifluoromethyl)-1,2,4-oxadiazol-3-yl]phenyl]methyl]-2,3-dihydro-1λ^6,5-benzothiazepin-7-yl]-1,3,4-oxadiazol-2-yl]-2-methyl-propanenitrile] | 311 % activation | 3110 nM | 
COC(=O)N1CC(c2nnc(-c3ccc4c(c3)N(Cc3ccc(-c5ccc(C(F)(F)F)cc5)nc3)C(=O)[C@@H](N)CS4(=O)=O)o2)CC(F)(F)C1 (stereo partly drawn) [Example 57, methyl 3,3-difluoro-5-[5-[(3R)-3-amino-1,1,4-trioxo-5-[[6-[4-(trifluoromethyl)phenyl]-3-pyridyl]methyl]-2,3-dihydro-1λ^6,5-benzothiazepin-7-yl]-1,3,4-oxadiazol-2-yl]piperidine-1-carboxylate] | 100 % activation | 652 nM | 
COC(=O)N1CC(c2nnc(-c3ccc4c(c3)N(Cc3ccc(-c5noc(C(C)(C)C)n5)cc3)C(=O)[C@@H](N)CS4(=O)=O)o2)CC(F)(F)C1 (stereo partly drawn) [Example 56, methyl 3,3-difluoro-5-[5-[(3R)-3-amino-5-[[4-(5-tert-butyl-1,2,4-oxadiazol-3-yl)phenyl]methyl]-1,1,4-trioxo-2,3-dihydro-1λ^6,5-benzothiazepin-7-yl]-1,3,4-oxadiazol-2-yl]piperidine-1-carboxylate] | 109 % activation | 940 nM | 
N[C@H]1CS(=O)(=O)c2ccc(-c3nnc(N4CCC(F)(F)CC4)o3)cc2N(Cc2ccc(-c3noc(C(F)(F)F)n3)cc2)C1=O [Example 68, (3R)-3-amino-7-[5-(4,4-difluoro-1-piperidyl)-1,3,4-oxadiazol-2-yl]-1,1-dioxo-5-[[4-[5-(trifluoromethyl)-1,2,4-oxadiazol-3-yl]phenyl]methyl]-2,3-dihydro-1λ^6,5-benzothiazepin-4-one] | 351 % activation | 1160 nM | 
CC(C)(C#N)c1nnc(-c2ccc3c(c2)N(Cc2ccc(-c4ncc(C(F)(F)F)o4)cc2)C(=O)[C@@H](N)CS3(=O)=O)o1 [Example 105, 2-[5-[(3R)-3-amino-1,1,4-trioxo-5-[[4-[5-(trifluoromethyl)oxazol-2-yl]phenyl]methyl]-2,3-dihydro-1λ^6,5-benzothiazepin-7-yl]-1,3,4-oxadiazol-2-yl]-2-methyl-propanenitrile] | 146 % activation | 999 nM | 
N#CC1(c2nnc(-c3ccc4c(c3)N(Cc3ccc(-c5ccc(OC(F)(F)F)cn5)cc3)C(=O)[C@@H](N)CS4(=O)=O)o2)CCC1 [Example 172, 1-[5-[(3R)-3-amino-1,1,4-trioxo-5-[[4-[5-(trifluoromethoxy)-2-pyridyl]phenyl]methyl]-2,3-dihydro-1λ^6,5-benzothiazepin-7-yl]-1,3,4-oxadiazol-2-yl]cyclobutanecarbonitrile] | 120 % activation | 1090 nM | 
CN1CCCC(F)(c2nnc(-c3ccc4c(c3)N(Cc3ccc(-c5ccc(C(F)(F)F)cn5)cc3)C(=O)[C@@H](N)CS4(=O)=O)o2)C1 (stereo partly drawn) [Example 51, (3R)-3-amino-7-[5-(3-fluoro-1-methyl-3-piperidyl)-1,3,4-oxadiazol-2-yl]-1,1-dioxo-5-[[4-[5-(trifluoromethyl)-2-pyridyl]phenyl]methyl]-2,3-dihydro-1λ^6,5-benzothiazepin-4-one] | 135 % activation | 2490 nM | 
N[C@H]1CS(=O)(=O)c2cc(F)c(-c3nnc(N4CCC(F)(F)CC4)o3)cc2N(Cc2ccc(-c3noc(C(F)(F)F)n3)cc2)C1=O [Example 5, (3R)-3-amino-7-[5-(4,4-difluoro-1-piperidyl)-1,3,4-oxadiazol-2-yl]-8-fluoro-1,1-dioxo-5-[[4-[5-(trifluoromethyl)-1,2,4-oxadiazol-3-yl]phenyl]methyl]-2,3-dihydro-1λ^6,5-benzothiazepin-4-one] | 537 % activation | 323 nM | 
COc1ccc(-c2ccc(CN3C(=O)[C@@H](N)CS(=O)(=O)c4ccc(-c5nnc(C6(N)CCCCC6)o5)cc43)cc2)cc1 [Example 43, (3R)-3-amino-7-[5-(1-aminocyclohexyl)-1,3,4-oxadiazol-2-yl]-5-[[4-(4-methoxyphenyl)phenyl]methyl]-1,1-dioxo-2,3-dihydro-1λ^6,5-benzothiazepin-4-one] | 89 % activation | 771 nM | 
N[C@H]1CS(=O)(=O)c2cc(F)c(-c3noc(N4CCOC5(CC5)C4)n3)cc2N(Cc2ccc(-c3ccc(C(F)(F)F)cc3)nc2)C1=O [Example 11, (3R)-3-amino-8-fluoro-7-[5-(4-oxa-7-azaspiro[2.5]octan-7-yl)-1,2,4-oxadiazol-3-yl]-1,1-dioxo-5-[[6-[4-(trifluoromethyl)phenyl]-3-pyridyl]methyl]-2,3-dihydro-1λ^6,5-benzothiazepin-4-one] | 64 % activation | 7700 nM | 
CC(C)(C#N)c1nnc(-c2ccc3c(c2)N(Cc2ccc(-c4nc(C(F)(F)F)co4)cc2)C(=O)[C@@H](N)CS3(=O)=O)o1 [Example 123, 2-[5-[(3R)-3-amino-1,1,4-trioxo-5-[[4-[4-(trifluoromethyl)oxazol-2-yl]phenyl]methyl]-2,3-dihydro-1λ^6,5-benzothiazepin-7-yl]-1,3,4-oxadiazol-2-yl]-2-methyl-propanenitrile] | 144 % activation | 1250 nM | 
CC(C)(C)C(N)c1nnc(-c2ccc3c(c2)N(Cc2ccc(-c4noc(C(F)(F)F)n4)cc2)C(=O)[C@@H](N)CS3(=O)=O)o1 (stereo partly drawn) [Example 34, (3R)-3-amino-7-[5-(1-amino-2,2-dimethyl-propyl)-1,3,4-oxadiazol-2-yl]-1,1-dioxo-5-[[4-[5-(trifluoromethyl)-1,2,4-oxadiazol-3-yl]phenyl]methyl]-2,3-dihydro-1λ^6,5-benzothiazepin-4-one] | 69 % activation | 4900 nM | 
CC(C)(C#N)c1nnc(-c2ccc3c(c2)N(Cc2ccc(-c4cnc(C(F)(F)F)nc4)cc2)C(=O)[C@@H](N)CS3(=O)=O)o1 [Example 100] | 100 % activation | 3220 nM | 
CC(C)(C#N)c1nnc(-c2ccc3c(c2)N(Cc2ccc(-c4ccnc(C(F)(F)F)c4)cc2)C(=O)[C@@H](N)CS3(=O)=O)o1 [Example 111, 2-[5-[(3R)-3-amino-1,1,4-trioxo-5-[[4-[2-(trifluoromethyl)-4-pyridyl]phenyl]methyl]-2,3-dihydro-1λ^6,5-benzothiazepin-7-yl]-1,3,4-oxadiazol-2-yl]-2-methyl-propanenitrile] | 151 % activation | 1860 nM | 
N#CC1(c2nc(-c3cc4c(cc3F)S(=O)(=O)C[C@H](N)C(=O)N4Cc3ccc(-c4noc(C(F)(F)F)n4)cc3)no2)CC1 [Example 16, 1-[3-[(3R)-3-amino-8-fluoro-1,1,4-trioxo-5-[[4-[5-(trifluoromethyl)-1,2,4-oxadiazol-3-yl]phenyl]methyl]-2,3-dihydro-1λ^6,5-benzothiazepin-7-yl]-1,2,4-oxadiazol-5-yl]cyclopropanecarbonitrile] | 315 % activation | 368 nM | 
N[C@H]1CS(=O)(=O)c2ccc(-c3nnc(C(N)(C4CC4)C(F)(F)F)o3)cc2N(Cc2ccc(-c3noc(C4CC4)n3)cc2)C1=O (stereo partly drawn) [Example 171] | 122 % activation | 3780 nM | 
C[C@@](N)(c1nnc(-c2ccc3c(c2)N(Cc2ccc(-n4nnc(C(F)(F)F)n4)cc2)C(=O)[C@@H](N)CS3(=O)=O)o1)C(F)(F)F [Example 156, (3R)-3-amino-7-[5-[(1R)-1-amino-2,2,2-trifluoro-1-methyl-ethyl]-1,3,4-oxadiazol-2-yl]-1,1-dioxo-5-[[4-[5-(trifluoromethyl)tetrazo 1-2-yl]phenyl]methyl]-2,3-dihydro-1λ^6,5-benzothiazepin-4-one] | 554 % activation | 2110 nM | 
CC(C)(C#N)c1nnc(-c2ccc3c(c2)N(Cc2ccc(-c4noc(C5CCC(F)(F)CC5)n4)cc2)C(=O)[C@@H](N)CS3(=O)=O)o1 [Example 101, 2-[5-[(3R)-3-amino-5-[[4-[5-(4,4-difluorocyclohexyl)-1,2,4-oxadiazol-3-yl]phenyl]methyl]-1,1,4-trioxo-2,3-dihydro-1λ^6,5-benzothiazepin-7-yl]-1,3,4-oxadiazol-2-yl]-2-methyl-propanenitrile] | 429 % activation | 3650 nM | 
CC(C)(C#N)c1nnc(-c2ccc3c(c2)N(Cc2ccc(-n4cc(C(F)(F)F)cn4)cc2)C(=O)[C@@H](N)CS3(=O)=O)o1 [Example 102, 2-[5-[(3R)-3-amino-1,1,4-trioxo-5-[[4-[4-(trifluoromethyl)pyrazol-1-yl]phenyl]methyl]-2,3-dihydro-1λ^6,5-benzothiazepin-7-yl]-1,3,4-oxadiazol-2-yl]-2-methyl-propanenitrile] | 143 % activation | 635 nM | 
COC(=O)N1CC2CC(c3nnc(-c4ccc5c(c4)N(Cc4ccc(-c6noc(C(F)(F)F)n6)cc4)C(=O)[C@@H](N)CS5(=O)=O)o3)(C2)C1 [Example 158, methyl 1-[5-[(3R)-3-amino-1,1,4-trioxo-5-[[4-[5-(trifluoromethyl)-1,2,4-oxadiazol-3-yl]phenyl]methyl]-2,3-dihydro-1λ^6,5-benzothiazepin-7-yl]-1,3,4-oxadiazol-2-yl]-3-azabicyclo[3.1.1]heptane-3-carboxylate] | 345 % activation |  | 1340 nM
